Laboratory results taken from PubChem BioAssay (NCI).
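96-well plates; 48 h exposure; 5 concentrations. Endpoints by linear interpolation between flanking doses. Not reached: highest tested concentration assigned. Abbreviation: GI50, concentration required for 50% inhibition of growth. At the TGI there is no net growth.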

Key:
Experiment in all cases: NCI-60 cell line screen, 48 h
[1] = system: A549 NSCLC
[2] = system: CCRF-CEM leukemia
[3] = system: HCT-15 colon
[4] = system: HL-60(TB) leukemia
[5] = system: HOP-92 NSCLC
[6] = system: K-562 leukemia
[7] = system: KM12 colon
[8] = system: MCF7 breast
[9] = system: NCI/ADR-RES ovarian
[10] = system: OVCAR-4 ovarian

| Structure (SMILES) | GI50 [1] | TGI [1] | GI50 [2] | TGI [2] | GI50 [3] | TGI [3] | GI50 [4] | TGI [4] | GI50 [5] | TGI [5] | GI50 [6] | TGI [6] | GI50 [7] | TGI [7] | GI50 [8] | TGI [8] | GI50 [9] | TGI [9] | GI50 [10] | TGI [10] |
| --- | --- | --- | --- | --- | --- | --- | --- | --- | --- | --- | --- | --- | --- | --- | --- | --- | --- | --- | --- | --- |
| COc1ccc2c(c1)c(-c1ccc(-c3cn(C)c4ccc(OC)cc34)[nH]1)cn2C | 4.04 µM | 17.6 µM | 2.03 µM | 5.8 µM | 1.84 µM | 3.91 µM | 2.36 µM | 5.69 µM | 2.58 µM | 7.21 µM | 1.48 µM | 6.8 µM | 2.75 µM | 9.59 µM | 5.18 µM | 24.4 µM | 3.39 µM | 20 µM | 1.94 µM | 4.01 µM |
| COc1cccc(N=N/C(=N\NC(=O)c2cc(Br)ccc2O)c2ccc(N(CCC#N)CCC#N)cc2OC)c1 | 49.3 µg/mL | > 150 µg/mL | 53.7 µg/mL | > 150 µg/mL | 52 µg/mL | > 150 µg/mL | 15 µg/mL | 15 µg/mL | 116 µg/mL | > 150 µg/mL | 25.4 µg/mL | > 150 µg/mL | 26.9 µg/mL | 83.4 µg/mL | 43.7 µg/mL | > 150 µg/mL | 120 µg/mL | > 150 µg/mL | 17.5 µg/mL | 60.9 µg/mL |
| COc1cc(NC(=O)NCc2ccco2)ccc1-c1ccc(NC(=O)NCc2ccco2)cc1OC | 1.74 µM | 28.3 µM | 16.8 µM | > 100 µM | 0.398 µM | > 100 µM | > 100 µM | > 100 µM | 2.67 µM | 7.76 µM | 0.773 µM | > 100 µM | 1.82 µM | > 100 µM | 1.49 µM | 4.68 µM | > 100 µM | > 100 µM | 1.47 µM | 3.71 µM |
| COc1ccc(-c2cc(-c3cccc(NS(C)(=O)=O)c3)nc(N)c2C#N)cc1 | 0.109 µM | > 93.4 µM | 0.0875 µM | > 100 µM | 0.108 µM | 19.4 µM | 0.0637 µM | 1.26 µM | 3.38 µM | 48.7 µM | 0.0541 µM | > 100 µM | 0.118 µM | 9.12 µM | 0.348 µM | 25.3 µM | 0.0603 µM | 1.1 µM | 1.24 µM | 99.6 µM |
| C=C1C(=O)OC2/C=C(\CO)CC/C=C(\CO)CC(OC(=O)C(C)C)C12 (stereo not given) | – | 37 µM | – | > 33.2 µM | – | 11.6 µM | – | > 24.8 µM | – | 4.13 µM | – | > 24.2 µM | – | 33.5 µM | – | 8.85 µM | – | 45.3 µM | – | 44 µM |
| Clc1cc(-c2ccccc2)nc2ccccc12 | – | > 100 µM | – | 54.1 µM | – | 36.5 µM | – | 53.3 µM | – | > 100 µM | – | > 100 µM | – | 77.5 µM | – | > 100 µM | – | > 100 µM | – | 62.3 µM |
